Source: patent US12390435B2, “Electrophiles and electrophile pro-drugs as RAD51 inhibitors” (University of Pittsburgh—Of the Commonwealth System of …, priority 2018, dated 2025)

How the values were obtained:
TNBC cells = test: Cellular H2O2 production; assay type: cell-based; conditions: short term and extended (6 hr) treatment
MDA-MB-231 cells = test: CellTiter-Glo relative growth (luminescent ATP); assay type: cell-based
Procedure: (§1) HEK 293T, MDA-MB-231, MDA-MB-468, Hs578T and BT-549 cells (American Type Culture Collection) were cultured at 37° C. with 5% CO2 in Dulbecco's modified Eagle's medium containing (DMEM) (Gibco) supplemented with 5% FBS (HyClone), 100 units/ml penicillin, […] streptomycin (Gibco), non-essential amino acids (Gibco) and 2 mM 1-glutamine (Gibco). Doxorubicin (Selleckchem), cisplatin (Sigma) or olaparib (Selleckchem) were dissolved in DMSO or DMF (cisplatin). […] Pure NO2-OA was diluted in DMSO and added to cells after solvation in assay media. Relative cell numbers were compared by measuring the luminescent signal generated by ATP using the CellTiter-Glo (Promega) assay. Cells were plated in a 96-well plate at 5,000 (MDA-MB-231) or 6,600 (BT549 or Hs578T) cells per well.
(§2) Data represent the mean±SEM from 3 independent experiments unless otherwise noted. A p value<0.05 was considered statistically significant. Non-linear curves were generated in GraphPad Prism 7.0 (GraphPad Software, La Jolla, CA, USA) for statistical analysis. EC50 values and standard error were calculated from three independent experiments utilizing a non-linear dose response variable slope model. Significance was tested by one-way ANOVA for multiple groups with Tukey posttest or by t-test when groups were less than three. RAD51 foci number was analyzed with ImageJ. Nuclear boundaries were individually identified in more than 50 cells per treatment group in three independent experiments.
(§3) The growth of BT-549 cells was not affected. […] MDA-MB-231 cells were plated in a 96 well plate and treated with talazoparib (0.01-75 μM) plus OA-NO2 or NDA-NO2 (0.2-12 μM) daily for 3 days. Growth inhibition (relative cell numbers) of MDA-MB-231 cells was determined by luminescent detection of ATP (CellTiter-Glo) (FIG. 1K).

Hs578T cells = test: CellTiter-Glo relative growth (luminescent ATP); assay type: cell-based
Procedure: as §1, §2, §3

BT-549 cells = test: CellTiter-Glo relative growth (luminescent ATP); assay type: cell-based
Procedure: as §1, §2, §3

NF-κB target genes = test: qPCR / RT2 profiler array of NF-κB target genes; assay type: cell-based, human; conditions: 5 μM
Procedure: Total RNA samples of tissues or cells were extracted using TRIZOL reagents according to the manufacturer's instructions (Invitrogen). Total RNA (1 μg) was reverse transcribed using the iScript cDNA kit (Bio-Rad) according to manufacturer instructions. cDNA (25 ng) was used for each subsequent quantitative real-time PCR (qRT-PCR) reaction. All qRT-PCR was performed on the StepOne PLUS PCR system (Thermo Fisher Scientific) using TaqMan gene expression assays. Fold change was calculated using the ΔΔCt method with 18S ribosomal RNA or human β-actin RNA serving as the internal control. Three individual experiments were done, and statistical significance was determined by one-way analysis of variance followed by Tukey post-test. […] The expression of 84 human NF-κB target genes was analyzed with 96-well plate format as instructed in the manufacturer's handbook (Qiagen). PCR amplification was conducted by StepOne PLUS PCR system and fold change of gene expression was calculated according to the manufacturer's instruction.

[1] = test system: NHEJ (EJ5-GFP, U2OS cells); test: EJ5-GFP NHEJ reporter assay in U2OS cells; assay type: cell-based; conditions: 5 μM, 48 h flow cytometry or 68 h live-cell microscopy
Procedure: Measurements of NHEJ, HR, Alt-EJ and SSA assays were performed as previously described. HR activity was measured by counting GFP-positive cells by flow cytometry at the MWRI flow cytometry core using a BD LSRII (BD Biosciences). RAD51 overexpressing cells were generated by stable transfection of pLVX RAD51 IRES Neo and selection with geneticin (Invitrogen).
U2OS cells were prepared as above, but 5 h following compound treatment, cells were transferred into the Incucyte Zoom (Essen) live-cell imaging automated fluorescence microscope at 37° C. with 5% CO2. Cell confluence and green object count per mm2 were determined using Incucyte Zoom software. […]
NO2-OA-dependent effects on HR DNA repair were further investigated by utilizing a DRGFP reporter assay. This analysis quantifies intracellular recombination of an integrated cDNA cassette of two tandem non-fluorescent GFP constructs following introduction of an I-SceI cleavage to the system by measuring the fluorescent GFP protein that is produced following successful recombination. […] A novel strategy was used to measure the kinetics of changes in HR in live cells by using automated fluorescence microscopy to track the emergence of GFP positive cells over time in monolayers, as opposed to making static measurements of detached cells using flow cytometry. […]

[2] = test system: MDA-MB-231 and MDA-MB-468 cells; test: Boyden chamber cell migration; assay type: cell-based; conditions: 5 μM
Procedure: MDA-MB-231 and MDA-MB-468 cells were subjected to cell migration analysis in Boyden chambers. The bottom of a 12-well membrane filter (BD Biosciences) was coated with 10 μg/mL fibronectin for 12 hr before each experiment. […] Cells were trypsinized and washed with migration media (DMEM containing 0.1% fatty acid-free BSA) to remove serum. Cells at a density of 10^5/well were then placed in the upper chamber with migration media containing the same pretreatment conditions. The cells were allowed to migrate towards the 5% FBS chemoattractant for 5 hr. Non-migrated cells from the top surface were removed with cotton swabs. Migrated cells were fixed with 4% paraformaldehyde (Electron Microscopy Sciences), then stained with 0.5% crystal violet (Sigma-Aldrich) for 15 min. Migrated cell density on the filters was observed by microscopy. The crystal violet on migrated cells was de-stained with 10% acetic acid, and the absorbance in individual filters was determined at […] nm. Images are representative of three individual experiments, and statistical comparison among treatments was determined by one-way analysis of variance followed by Tukey post-test.

[3] = cisplatin 72 h plus daily 2 μM NO2-OA
[4] = doxorubicin 72 h plus daily 2 μM NO2-OA
[5] = olaparib 72 h plus daily 2 μM NO2-OA

## CCCCCCCCC(=CCCCCCCCC(=O)O)[N+](=O)[O-] [NO2-OA, 10-nitro-octadec-9-enoic acid]
TNBC cells
  cellular rates of H2O2 production: did not significantly impact cellular rates of H2O2 production
MDA-MB-231 cells; 12 or 6.0 μM plus 0.01-75 μM talazoparib, daily for 3 days
  Growth inhibition: ~100%
MDA-MB-231 cells; ATP Celltiter Glo proliferation assay, n=3
  EC50 for growth inhibition, compared between compounds: higher EC50
MDA-MB-231 cells; Homo sapiens, MDA-MB-231, 72 h, read-out: EC50 for growth inhibition
  EC50: 3.66 ± 0.14 µM
MDA-MB-231 cells; [3]
  increased growth inhibition of cisplatin: 6 fold
MDA-MB-231 cells; [4]
  enhanced growth inhibition of doxorubicin: 7 fold
MDA-MB-231 cells; [5]
  enhanced growth inhibition of olaparib: 5 fold
MDA-MB-231 cells; with talazoparib (0.01-75 μM), 0.2-12 μM, daily 3 days, CI<1 is synergistic
  Combination index (CI), Chou-Talalay: < 1
Hs578T cells; Homo sapiens, Hs-578T, 72 h, read-out: EC50 for growth inhibition
  EC50: 1.98 ± 0.52 µM
Hs578T cells; [3]
  increased growth inhibition of cisplatin: 3 fold
Hs578T cells; [4]
  enhanced growth inhibition of doxorubicin: 5 fold
Hs578T cells; [5]
  enhanced growth inhibition of olaparib: 17 fold
BT-549 cells; Homo sapiens, BT-549, 72 h, read-out: EC50 for growth inhibition
  EC50: 3.78 ± 0.48 µM
BT-549 cells; cisplatin 72 h plus daily 2 μM NO2-OA, printed as suppressed
  growth inhibition with cisplatin, suppressed: 1.4 fold
BT-549 cells; [4]
  enhanced growth inhibition of doxorubicin: not affected
BT-549 cells; [5]
  enhanced growth inhibition of olaparib: 3 fold
NF-κB target genes; MDA-MB-231 or MDA-MB-468 cells, TNFα 20 ng/mL
  TNFα-induced expression of ICAM-1 and uPA genes: suppression of TNFα-induced expression of ICAM-1 and uPA genes
NF-κB target genes; MDA-MB-468 cells, 24 hr
  mRNA expression of NF-κB target genes (PCR array): decreased the mRNA expression of multiple NF-κB target genes
[1]
  effect on NHEJ (GFP positive cells): no effect
[2]
  basal, non-stimulated migration: modestly inhibited
[2]; TNFα 20 ng/mL
  TNFα-induced cell migration: significantly inhibited
